Reference: article PMC6538733, “Chemical Constituents from Mentha haplocalyx Briq. (Mentha canadensis L.) and Their α-Glucosidase Inhibitory Activities” (Natural Products and Bioprospecting, 2019)
pIC50: −log10 of the molar value.

Target: α-glucosidase
Assay: pNPG hydrolysis assay, absorbance at […] nm
Format: biochemical

| pIC50 | SMILES |
| --- | --- |
| 3.04 | C=C(C)[C@@H]1CC=C(C)[C@@H](O[C@@H]2O[C@H](CO)[C@@H](O)[C@H](O)[C@H]2O)C1 [compound 4, (4R,6S)-carveol β-D-glucoside] |
| 3.29 | C=C(C)[C@@H]1CC=C(C)[C@H](O[C@@H]2O[C@H](CO)[C@@H](O)[C@H](O)[C@H]2O)C1 [compound 3, (4R,6R)-carveol β-D-glucoside] |
| 4.08 | CC1=C(CC[C@H](C)O)C(C)(C)C[C@H](O[C@@H]2O[C@H](CO)[C@@H](O)[C@H](O)[C@H]2O)C1 [compound 11, (3R,9S)-megastigman-5-en-3,9-diol 3-O-β-D-glucopyranoside] |
